The results in this text go back to US20070004727A1, “Use of compounds for the prevention of drug-induced cell toxicity” (Reception ApS c/o Ostysk Innovation A/S, priority 2003, published 2007).

In the assay the test system is uptake of gentamicin into the mouse kidneys. The experiment in a line: Gentamicin uptake in mouse kidneys following i.p. administration of the compound. It counts as in vivo. To be noted: for Effect of the inhibitors on the uptake of gentamicin into the mouse kidneys: 3 mg of inhibitor intraperitoneally in mice, as in Example 1 (FIG. 6), ranked among six inhibitors tested. As to the method:
The effect of a compound, 2-[4-(2-aminoethyl)piperazin-1-yl]ethylamine (Aldrich, D2,340-8, lot 06028BO-332), according to the invention was tested in vivo. Gentamicin uptake in mouse kidneys following intraperitoneal (i.p.) administration of the compound was measured.
For normal application of radioactive gentamicin the following was performed: I.p. injection of 50 micrograms per kg of tritiated gentamicin with or without 3 mg of the inhibitor per mouse.
For competition of clinical doses of gentamicin 50 micrograms/kg of tritiated gentamicin plus 5 mg/kg of cold gentamicin (clinical dose) were injected in admixture with 3 mg total of 2-[4-(2-aminoethyl)piperazin-1-yl]ethylamine per mouse. A control received gentamicin only.
In this experiment 3 mg of the inhibitors 3-methylamino-1-(4-methylpiperazino)-2-propanole, 4-piperazinoaniline, piperazin-2-one-HCl, 2-[4-(2-aminoethyl)piperazin-1-yl]ethylamine, piperazine anhydrous, and 0.5 mg of 1-(3-chlorophenyl)piperazine diHCl (m-CPP), respectively, were administered intraperitoneally in mice (see FIG. 6) as described in Example 1. The effect of the inhibitors on the uptake of gentamicin into the mouse kidneys was determined by means of the assay described in Example 1.

Regarding `NCCN1CCN(CCN)CC1` [2-[4-(2-aminoethyl)piperazin-1-yl]ethylamine], the “Effect of the inhibitors on the uptake of gentamicin into the mouse kidneys” value (“Effect of the inhibitors” below) is listed as “strongest gentamicin inhibitors”. Also, under “i.p., 50 micrograms/kg tritiated gentamicin plus 5 mg/kg cold gentamicin (clinical dose) in admixture with 3 mg total of compound per mouse, control received gentamicin only”, the “Inhibition (of gentamicin uptake in mouse kidneys) compared to the control” value was 40%.

Consider `Cl.O=C1CNCCN1` [piperazin-2-one-HCl], for which the “Effect of the inhibitors” value is reported as “strongest gentamicin inhibitors”.

Turning to `C1CNCCN1` [piperazine anhydrous], the “Effect of the inhibitors” value is “strongest gentamicin inhibitors”.
